{"source": "patent US20250064844A1", "about": "(Emory University, priority 2020, published 2025)", "key": {"in vitro [1]": {"experiment": "in vitro", "conditions": "monkey, plasma"}, "in vitro [2]": {"experiment": "in vitro", "conditions": "both, human, plasma"}, "[3]": {"conditions": "cynomolgus monkey, in vivo, po; for AUC0->24h / CL / Cmax / Tmax / t1/2: 0.4 mmol/kg"}, "in vitro [4]": {"experiment": "in vitro", "conditions": "male, CD-1, mouse, microsomes, pH 7.4"}, "in vitro [5]": {"experiment": "in vitro", "conditions": "male, CD-1, mouse, plasma"}, "[6]": {"conditions": "human, in vivo"}, "in vitro [7]": {"experiment": "in vitro", "conditions": "male, Sprague-Dawley, rat, plasma"}, "in vitro [8]": {"experiment": "in vitro", "conditions": "dog, plasma"}, "in vitro [9]": {"experiment": "in vitro", "conditions": "both, human, microsomes, pH 7.4"}, "in vitro [10]": {"experiment": "in vitro", "conditions": "monkey, microsomes, pH 7.4"}, "in vivo": {"experiment": "in vivo", "conditions": "ICR (CD-1), mouse, 15 mg/kg"}}, "note": "Like-named read-outs stand apart in the source and are kept apart here.", "data": [{"smiles": "CC(C)C(=O)OC[C@H]1O[C@@H](n2ccc(NO)nc2=O)[C@H](OC(=O)C(C)C)[C@@H]1OC(=O)C(C)C", "note": "[EIDD-2800]", "values": [{"measurement": "half-life at 1 μM", "setting": "in vitro [1]", "result": 2, "unit": "min"}, {"measurement": "half-life at 1 μM", "setting": "in vitro [2]", "result": 1, "unit": "min"}, {"measurement": "F*", "setting": "[3]; female", "result": "~16", "unit": "%"}, {"measurement": "F*", "setting": "[3]; male", "result": "~27", "unit": "%"}, {"measurement": "half-life", "setting": "in vitro [4]", "result": "< 1", "unit": "min"}, {"measurement": "half-life at 1 μM", "setting": "in vitro [5]", "result": 1, "unit": "min"}]}, {"smiles": "CC(C)C(=O)OC[C@H]1O[C@@H](n2ccc(NO)nc2=O)[C@H](O)[C@@H]1O", "note": "[EIDD-2801]", "values": [{"measurement": "hematological parameters", "setting": "[6]", "result": "no clinically significant changes in hematological parameters"}, {"measurement": "half-life at 1 μM", "setting": "in vitro [7]", "result": 1, "unit": "min"}, {"measurement": "half-life at 1 μM", "setting": "in vitro [1]", "result": 24, "unit": "min"}, {"measurement": "half-life at 1 μM", "setting": "in vitro [2]", "result": 63, "unit": "min"}, {"measurement": "F*", "setting": "[3]; female", "result": "~26", "unit": "%"}, {"measurement": "F*", "setting": "[3]; male", "result": "~22", "unit": "%"}, {"measurement": "AUC0−>t", "setting": "HepG2 cells", "result": 360.3, "unit": "pmol · h/M cells"}, {"measurement": "Cmax", "setting": "HepG2 cells", "result": 18.9, "unit": "pmol/M Cells"}, {"measurement": "AUC0−>t", "setting": "Huh-7 cells", "result": 1025, "unit": "pmol · h/M cells"}, {"measurement": "Cmax", "setting": "Huh-7 cells", "result": 77.5, "unit": "pmol/M Cells"}, {"measurement": "half-life at 1 μM", "setting": "in vitro [8]", "result": 192, "unit": "min"}, {"measurement": "AUC0−>t", "setting": "Vero cells", "result": 1724, "unit": "pmol · h/M cells"}, {"measurement": "Cmax", "setting": "Vero cells", "result": 121.2, "unit": "pmol/M Cells"}, {"measurement": "half-life at 1 μM", "setting": "in vitro [5]", "result": 1, "unit": "min"}, {"measurement": "AUC0−>t", "setting": "CEM cells", "result": 85.3, "unit": "pmol · h/M cells"}, {"measurement": "Cmax", "setting": "CEM cells", "result": 5.4, "unit": "pmol/M Cells"}]}, {"smiles": "CC(C)[C@H](N)C(=O)OC[C@H]1O[C@@H](n2ccc(NO)nc2=O)[C@H](O)[C@@H]1O", "note": "[EIDD-2898]", "values": [{"measurement": "half-life at 1 μM", "setting": "in vitro [1]", "result": 138, "unit": "min"}, {"measurement": "half-life", "setting": "in vitro [9]", "result": 14, "unit": "min"}, {"measurement": "half-life at 1 μM", "setting": "in vitro [2]", "result": 198, "unit": "min"}, {"measurement": "F*", "setting": "[3]; female", "result": "~15", "unit": "%"}, {"measurement": "AUC0->24h", "setting": "[3]; female", "result": "26.9 ± 4.8", "unit": "µM·h"}, {"measurement": "CL", "setting": "[3]; female", "result": "265 ± 53.3", "unit": "mL/min/kg"}, {"measurement": "Cmax", "setting": "[3]; female", "result": "15.9 ± 8.1", "unit": "µM"}, {"measurement": "Tmax", "setting": "[3]; female", "result": "78 ± 30", "unit": "min"}, {"measurement": "t1/2", "setting": "[3]; female", "result": "33 ± 15", "unit": "min"}, {"measurement": "F*", "setting": "[3]; male", "result": "~18", "unit": "%"}, {"measurement": "AUC0->24h", "setting": "[3]; male", "result": "26.1 ± 5.2", "unit": "µM·h"}, {"measurement": "CL", "setting": "[3]; male", "result": "273 ± 51.7", "unit": "mL/min/kg"}, {"measurement": "Cmax", "setting": "[3]; male", "result": "9.1 ± 2.7", "unit": "µM"}, {"measurement": "Tmax", "setting": "[3]; male", "result": "138 ± 57.6", "unit": "min"}, {"measurement": "t1/2", "setting": "[3]; male", "result": "31.8 ± 9.6", "unit": "min"}, {"measurement": "half-life at 1 μM", "setting": "in vitro [5]", "result": 144, "unit": "min"}, {"measurement": "half-life", "setting": "in vitro [10]", "result": 13, "unit": "min"}, {"measurement": "AUC(0-inf)", "setting": "in vivo", "result": 8.23, "unit": "µM·h"}, {"measurement": "Cmax", "setting": "in vivo", "result": 23.1, "unit": "µM"}, {"measurement": "Tmax", "setting": "in vivo", "result": 4.8, "unit": "min"}, {"measurement": "half-life", "setting": "in vivo", "result": 20.4, "unit": "min"}]}]}
